Holding throughout (type): in vivo
Assay [1] deals with yellow nutsedge (Cyperus esculentus). The assay is described as follows: Postemergence herbicidal activity. Conditions: Table 3; weeds in rice; rate 250 ppm. In outline:
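Foliar spray at 1st–2nd true leaf; 1 ppm ≈ 1 g/Ha. Carrier: acetone/water/IPA/DMSO plus crop oil concentrate and Triton X-155. Greenhouse, sub-irrigated. Visual rating vs untreated at 2 wk, 0 = no injury, 100 = complete kill.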

Assay [2] relates to sicklepod (Cassia obtusifolia). The assay is described as follows: Range & Pasture Crop Testing (postemergence track sprayer). The settings on record: Table 8; salts of Compound 1; dose for 80 percent control. The method, boiled down:
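Postemergence track-sprayer application at 187 L/ha, compounds formulated in 97:3 acetone:DMSO with 0.25% X-77, five rates (X serially diluted to 1/16×). Visual percent control (0–100 scale, burn down) rated 3 weeks after treatment; GR50/GR80 derived by probit analysis.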

Assay [3] concerns common ragweed (Ambrosia artemisiifolia). The description is as above. The settings on record: Table 9; rate 70 g/Ha; 3 week evaluation. Here is the method: (§1) Rates are calculated based upon 5 doses being applied. The high rate (X), followed by serial dilutions of 1/2×, 1/4×, 1/8× and 1/16×. Compound requirements are based upon the 187 L/ha carrier volume, specifications of the delivery system (Mandel track sprayer) and generating 24 mL of technical spray material to allow for the dilutions and overage in the sprayer. [formula]
(§2) All technical materials were formulated in 97:3 (acetone:DMSO) with 0.25% X-77. The total volume of solvent is maintained at less than 7%. An overhead Mandel track sprayer calibrated to deliver 187 L/ha was used for all treatment applications (postemergence). Picloram was included as a comparison treatment.
(§3) Solutions were applied with a mechanized track-sprayer at the following settings:
(§4) Spray height: 17 inches above top of plants
(§5) This provides an application volume of 187 L/ha.
(§6) Percent weed control (burn down) was evaluated 3 weeks after treatment. Visual control on a 0-100 linear scale was used, with 0 representing no control and 100 representing total control. Burn down ratings were taken for annual and perennial weed species.

Assay [4] has as its system broadleaf dock (Rumex obtusifolia). Described as above. The settings on record: Table 9; rate 70 g/Ha; 3 weeks after treatment. Here is the method:
as §1, §2, §3, §4, §5, §6

The test system of assay [5] is crested wheatgrass (Agropyron cristatum) (grass crop). Described as above. The settings on record: Table 9, rate 70 g/Ha, 3 weeks after treatment. Here is the method: as §1, §2, §3, §4, §5, §6
Assay [6] relates to wheat (Triticum aestivum). Briefly: Postemergence herbicidal activity, selectivity to wheat. Conditions: Table 5; crop (wheat); rate 250 ppm. The method, then:
Seeds of the desired test plant species were planted in Grace-Sierra MetroMix® 306 planting mixture, which typically has a pH of 6.0 to 6.8 and an organic matter content of about 30 percent, in plastic pots with a surface area of 64 square centimeters. When required to ensure good germination and healthy plants, a fungicide treatment and/or other chemical or physical treatment was applied. The plants were grown for 7-21 days in a greenhouse with an approximate 15 hr photoperiod which was maintained at about 23-29° C. during the day and 22-28° C. during the night. Nutrients and water were added on a regular basis and supplemental lighting was provided with overhead metal halide 1000-Watt lamps as necessary. The plants were employed for testing when they reached the first or second true leaf stage.
A weighed amount, determined by the highest rate to be tested, of each test compound was placed in a 20 mL glass vial and was dissolved in 4 mL of a 97:3 v/v (volume/volume) mixture of acetone and dimethyl sulfoxide (DMSO) to obtain concentrated stock solutions. […] The concentrated stock solutions obtained were diluted with an aqueous mixture containing acetone, water, isopropyl alcohol, DMSO, Atplus 411F crop oil concentrate, and Triton X-155 surfactant in a 48.5:39:10:1.5:1.0:0.02 v/v ratio to obtain spray solutions of known concentration. The solutions containing the highest concentration to be tested were prepared by diluting 2 mL aliquots of the stock solution with 13 mL of the mixture and lower concentrations were prepared by serial dilution of the stock solution. Approximately 1.5 mL aliquots of each solution of known concentration were sprayed evenly onto each of the test plant pots using a DeVilbiss atomizer driven by compressed air pressure of 2 to 4 psi ([…]) to obtain thorough coverage of each plant. Control plants were sprayed in the same manner with the aqueous mixture. In this test an application rate of 1 ppm results in the application of approximately 1 g/Ha.
The treated plants and control plants were placed in a greenhouse as described above and watered by sub-irrigation to prevent wash-off of the test compounds. After 2 weeks the condition of the test plants as compared with that of the untreated plants was determined visually and scored on a scale of 0 to 100 percent where 0 corresponds to no injury and 100 corresponds to complete kill.

These results are taken from patent US20010047099A1, “4-aminopicolinates and their use as herbicides” (priority 2000, published 2001).

As to `Nc1cc(Cl)nc(C(=O)O)c1Cl` [Compound 1, 4-Amino-3,6-dichloropyridine-2-carboxylic acid], the “post emergent evaluation - % control CYPES” value in assay [1] was 75%. Moreover, the “Post-emergent GR80 CASOB” value in assay [2] was 11 g/Ha.

For `COC(=O)c1nc(Cl)cc(N)c1Cl` [Compound 3, methyl 4-amino-3,6-dichloropyridine-2-carboxylate], the “Post-emergent Evaluation - % control AMBEL” value in assay [3] is 100%. The “Post-emergent Evaluation - % control RUMOB” value in assay [4] came to 100%. For the same molecule, the “Post-emergent Evaluation - % control AGRCR” value in assay [5] is 30%.

For the molecule `Nc1cc(Br)nc(C(=O)O)c1Cl` [Compound 14, 4-Amino-6-bromo-3-chloropyridine-2-carboxylic acid], the “Post-emergent Evaluation - % control TRZAS” value in assay [6] is on record as 0%. Besides, the “post emergent evaluation - % control CYPES” value in assay [1] came out at 75%.
